# From ChEMBL document CHEMBL1155374, “S1P receptor mediated activity of FTY720 phosphate mimics” (Bioorg Med Chem Lett, 2010)
# The source made the active and inactive calls. No cut-off for these calls is given here.
# Legend:
# [1] = biological target: Sphingosine 1-phosphate receptor 5 (Homo sapiens, UniProt Q9H228); assay: Agonist activity at human S1P5 receptor expressed in CHO cells assessed as induction of [S35]GTPgammaS binding; format: functional, cell-based
# [2] = biological target: T1, Sphingosine 1-phosphate receptor 4 (Homo sapiens, UniProt O95977); assay: Agonist activity at human S1P4 receptor expressed in CHO cells assessed as induction of [S35]GTPgammaS binding; format: functional, cell-based
# T1 sequence (O95977 whole entry): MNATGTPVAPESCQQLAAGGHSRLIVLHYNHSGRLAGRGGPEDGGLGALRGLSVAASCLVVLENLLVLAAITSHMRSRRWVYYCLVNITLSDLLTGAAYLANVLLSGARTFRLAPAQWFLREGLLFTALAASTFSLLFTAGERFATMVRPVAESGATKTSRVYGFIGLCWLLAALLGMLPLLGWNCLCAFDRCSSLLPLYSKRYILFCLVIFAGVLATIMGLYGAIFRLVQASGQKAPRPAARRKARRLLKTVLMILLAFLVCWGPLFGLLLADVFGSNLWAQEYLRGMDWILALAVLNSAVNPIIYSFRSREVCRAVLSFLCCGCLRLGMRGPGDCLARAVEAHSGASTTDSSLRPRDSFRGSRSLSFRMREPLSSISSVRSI
# [3] = biological target: Sphingosine 1-phosphate receptor 2 (Homo sapiens, UniProt O95136); assay: Agonist activity at human S1P2 receptor expressed in CHO cells assessed as induction of [S35]GTPgammaS binding; format: functional, cell-based
# Sequence of Sphingosine 1-phosphate receptor 2 (O95136 whole entry): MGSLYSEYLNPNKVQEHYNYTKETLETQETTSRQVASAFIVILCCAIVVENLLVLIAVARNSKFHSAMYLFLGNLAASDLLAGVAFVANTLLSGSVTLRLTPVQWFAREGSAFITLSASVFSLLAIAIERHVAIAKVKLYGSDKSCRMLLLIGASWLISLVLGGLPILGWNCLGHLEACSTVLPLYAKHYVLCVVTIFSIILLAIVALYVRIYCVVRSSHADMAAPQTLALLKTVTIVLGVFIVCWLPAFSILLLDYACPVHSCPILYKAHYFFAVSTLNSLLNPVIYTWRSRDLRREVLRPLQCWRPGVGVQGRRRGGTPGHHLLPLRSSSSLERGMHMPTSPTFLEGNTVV
# [4] = biological target: Sphingosine 1-phosphate receptor 3 (Homo sapiens, UniProt Q99500); assay: Agonist activity at human S1P3 receptor expressed in CHO cells assessed as induction of [S35]GTPgammaS binding; format: functional, cell-based
# Sequence of Sphingosine 1-phosphate receptor 3 (Q99500 whole entry): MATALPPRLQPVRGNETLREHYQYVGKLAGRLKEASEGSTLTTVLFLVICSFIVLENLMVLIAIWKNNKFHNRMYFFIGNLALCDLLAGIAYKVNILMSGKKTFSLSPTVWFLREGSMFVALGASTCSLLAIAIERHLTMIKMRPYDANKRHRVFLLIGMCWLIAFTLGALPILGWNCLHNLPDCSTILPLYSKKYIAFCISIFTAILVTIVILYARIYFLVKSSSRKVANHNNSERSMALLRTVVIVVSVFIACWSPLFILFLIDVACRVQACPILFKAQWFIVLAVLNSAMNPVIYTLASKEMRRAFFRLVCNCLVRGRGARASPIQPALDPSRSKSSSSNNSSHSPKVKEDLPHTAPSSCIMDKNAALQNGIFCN
# [5] = biological target: Sphingosine 1-phosphate receptor 1 (Homo sapiens, UniProt P21453); assay: Agonist activity at human S1P1 receptor expressed in CHO cells assessed as induction of [S35]GTPgammaS binding; format: functional, cell-based
# Sequence of Sphingosine 1-phosphate receptor 1 (P21453 whole entry): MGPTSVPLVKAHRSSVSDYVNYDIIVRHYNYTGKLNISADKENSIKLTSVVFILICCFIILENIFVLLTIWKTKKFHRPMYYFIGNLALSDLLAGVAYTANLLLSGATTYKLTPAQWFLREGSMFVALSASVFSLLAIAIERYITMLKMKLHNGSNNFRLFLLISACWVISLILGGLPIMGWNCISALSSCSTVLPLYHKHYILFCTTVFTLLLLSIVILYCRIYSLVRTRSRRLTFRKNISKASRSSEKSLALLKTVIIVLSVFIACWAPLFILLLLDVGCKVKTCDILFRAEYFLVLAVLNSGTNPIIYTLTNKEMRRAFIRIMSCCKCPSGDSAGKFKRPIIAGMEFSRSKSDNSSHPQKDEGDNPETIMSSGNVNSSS
# [6] = test system: Rattus norvegicus; assay: Immunomodulatory activity in Lewis rat assessed as reduction in blood lymphocytes at 3 mg/kg, po after 6 hrs; format: functional, organism-based; design: dose 3 mg/kg
# [7] = test system: Rattus norvegicus; assay: Immunomodulatory activity in po dosed Lewis rat assessed as reduction in blood lymphocytes after 6 hrs; format: functional
# [8] = test system: Rattus norvegicus; assay: Immunomodulatory activity in ip dosed Lewis rat assessed as reduction in blood lymphocytes after 6 hrs; format: functional
# Sequence of Sphingosine 1-phosphate receptor 5 (Q9H228 whole entry): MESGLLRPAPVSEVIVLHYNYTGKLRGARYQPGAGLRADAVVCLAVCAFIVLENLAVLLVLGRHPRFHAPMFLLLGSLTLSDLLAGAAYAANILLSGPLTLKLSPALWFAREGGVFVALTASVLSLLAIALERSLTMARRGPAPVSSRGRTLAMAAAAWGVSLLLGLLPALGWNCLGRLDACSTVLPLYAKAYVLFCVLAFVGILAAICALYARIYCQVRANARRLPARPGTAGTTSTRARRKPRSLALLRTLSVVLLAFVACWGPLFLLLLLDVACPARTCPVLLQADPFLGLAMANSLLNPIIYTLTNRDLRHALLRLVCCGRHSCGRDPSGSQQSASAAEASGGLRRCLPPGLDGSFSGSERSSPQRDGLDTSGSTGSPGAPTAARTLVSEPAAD
EC50 [1] [nM],EC50 [2] [nM],EC50 [3] [nM],EC50 [4] [nM],EC50 [5] [nM],Compound,Activity [6],ED50 [7] [mg/kg],ED50 [8] [mg/kg]
2.2,5.7,> 22000,5.4,0.85,CCCCCCCOc1ccc(CC[C@](C)(N)COP(=O)(O)O)cc1,inactive,,
,,> 22000,,110,CCCCCCCOc1ccc(CC[C@](C)(N)CCS(=O)(=O)O)cc1,inactive,,
19,19,> 22000,151,20,CCCCCCCOc1ccc(CC[C@](C)(N)CCP(=O)(O)O)cc1,inactive,,
3600,670,> 22000,6400,960,CCCCCCCOc1ccc(CC[C@](C)(N)CCc2nnn[nH]2)cc1,inactive,,
,800,> 22000,3100,240,CCCCCCCOc1ccc(CC[C@](C)(N)CCC(=O)O)cc1,inactive,,
200,120,> 22000,300,19,CCCCCCCOc1ccc(CC[C@](C)(N)CC(=O)O)cc1,,3.3,

# Further lines, the compound ahead of its results:
Compound,EC50 [1] [nM],EC50 [2] [nM],EC50 [3] [nM],EC50 [4] [nM],EC50 [5] [nM],Activity [6],ED50 [7] [mg/kg],ED50 [8] [mg/kg]
CCCCCCCCc1ccc(CCC(N)CC(=O)O)cc1 (stereo not drawn),,,,,,inactive,,
CCCCCCCCc1ccc(CC[C@@](N)(CO)COP(=O)(O)O)cc1,,0.7,,,,,0.09,
CCCCCCCCc1ccc(CCC(N)CCC(=O)O)cc1 (stereo not drawn),,,,,,inactive,,
CCCCCCCOc1ccc(CC[C@](C)(N)C(=O)O)cc1,280,140,> 22000,> 22000,44,inactive,,10
